Earlier results in patent publication US20170135934A1, “Mouth Rinse for Prevention of Periodontal Disease” (priority 2015, published 2017).
Like-named read-outs stand apart in the source and are kept apart here. Residues, ends and D or L forms follow the SMILES beside them.

Key:
[1] = healthy volunteers; for urinary losses of dipeptides: continuous infusion; for side effects: continuous infusion of supplemented amino acid solution
[2] = system: intracellular glutamine pool; conditions: intravenous supply following cholecystectomy
[3] = system: biopsies from normal human ileum, proximal colon and rectosigmoid colon; conditions: compared with saline
[4] = patients, TPN over 5 days
rat lymphocytes = conditions: glutamine added to the medium
[5] = system: intestinal epithelial cell; conditions: heat shock at 43 degrees C.; concentrations higher than 1 mM

SMILES: NCC(=O)N[C@@H](CCC(N)=O)C(=O)O [GlyGln, glycyl-L glutamine, reference compound] (H-Gly-Gln-OH)
- urinary losses of dipeptides [1]: about 1 % of the given dose
- side effects [1]: not accompanied by any side effects

SMILES: C[C@H](N)C(=O)N[C@@H](CCC(N)=O)C(=O)O [AlaGln, L-Alanyl-L-gutamine] (H-Ala-Gln-OH)
- urinary losses of dipeptides [1]: about 1 % of the given dose
- side effects [1]: not accompanied by any side effects
- intracellular glutamine pool preserved [2]: 91 % of postoperative value
- crypt cell proliferation [3]: equally stimulated crypt cell proliferation
- peptide in plasma [4]: not detectable
- side effects [4]: free of any side effects

SMILES: NC(=O)CC[C@H](N)C(=O)O [glutamine]
- proliferation of rat lymphocytes (radioactive thymidine) (rat lymphocytes): four-fold
- percentage of floating cells [5]: dose dependent decrease
- crypt cell proliferation [3]: equally stimulated crypt cell proliferation
